Assay results: US20220110325A1, “PESTICIDALLY ACTIVE AZOLE-AMIDE COMPOUNDS” (SYNGENTA CROP PROTECTION AG, priority 2019, published 2022)

What was measured:
Format in all cases: in vivo
[1] = tested on: Plutella xylostella (Diamond Back Moth); test: Plutella xylostella (diamond back moth), artificial diet, eggs, 24-well; conditions: 192 h, application rate of 200 ppm, eggs on artificial diet, 8 days after infestation, read-out: control in at least one of the two categories (mortality or growth inhibition)
Procedure: Example B5: Plutella xylostella (Diamond Back Moth)
24-well microtiter plates with artificial diet were treated with aqueous test solutions prepared from 10,000 ppm DMSO stock solutions by pipetting. After drying, Plutella eggs were pipetted through a plastic stencil onto a gel blotting paper and the plate was closed with it. The samples were assessed for mortality and growth inhibition in comparison to untreated samples 8 days after infestation.

[2] = tested on: Spodoptera littoralis (Egyptian Cotton Leaf Worm); test: Spodoptera littoralis (Egyptian cotton leaf worm), sprayed cotton leaf discs; conditions: foliar, 72 h, application rate of 200 ppm, L1 larvae, 3 days after infestation, read-out: control in at least one of the three categories (mortality, anti-feeding, or growth inhibition)
Procedure: Example B10: Spodoptera littoralis (Egyptian Cotton Leaf Worm)
Cotton leaf discs were placed onto agar in 24-well microtiter plates and sprayed with aqueous test solutions prepared from 10,000 ppm DMSO stock solutions. After drying the leaf discs were infested with five L1 larvae. The samples were assessed for mortality, anti-feeding effect, and growth inhibition in comparison to untreated samples 3 days after infestation. Control of Spodoptera littoralis by a test sample is given when at least one of the categories mortality, anti-feedant effect, and growth inhibition is higher than the untreated sample.

[3] = tested on: Diabrotica balteata (corn root worm); test: Diabrotica balteata (corn root worm), sprayed maize sprouts; conditions: 96 h, application rate of 200 ppm, L2 larvae, 4 days after infestation, read-out: control in at least one of the two categories (mortality or growth inhibition)
Procedure: Example B2: Diabrotica Balteata (Corn Root Worm)
Maize sprouts placed onto an agar layer in 24-well microtiter plates were treated with aqueous test solutions prepared from 10,000 ppm DMSO stock solutions by spraying. After drying, the plates were infested with L2 larvae (6 to 10 per well). The samples were assessed for mortality and growth inhibition in comparison to untreated samples 4 days after infestation.

[4] = tested on: Chilo suppressalis (Striped Rice Stemborer); test: Chilo suppressalis (striped rice stemborer), artificial diet; conditions: 144 h, application rate of 200 ppm, L2 larvae, 6 days after infestation, read-out: control in at least one of the three categories (mortality, anti-feeding or growth inhibition)
Procedure: Example 14: Chilo suppressalis (Striped Rice Stemborer)
24-well microtiter plates with artificial diet were treated with aqueous test solutions prepared from 10,000 ppm DMSO stock solutions by pipetting. After drying, the plates were infested with L2 larvae (6-8 per well). The samples were assessed for mortality, anti-feeding effect, and growth inhibition in comparison to untreated samples 6 days after infestation. Control of Chilo suppressalis by a test sample is given when at least one of the categories mortality, anti-feedant effect, and growth inhibition is higher than the untreated sample.

[5] = tested on: Euschistus heros (Neotropical Brown Stink Bug); test: Euschistus heros (neotropical brown stink bug), sprayed soybean leaves; conditions: 120 h, application rate of 200 ppm, N2 nymphs, 5 days after infestation, read-out: control in at least one of the two categories (mortality or growth inhibition)
Procedure: Example B3: Euschistus heros(Neotropical Brown Stink Bug)
Soybean leaves on agar in 24-well microtiter plates were sprayed with aqueous test solutions prepared from 10,000 ppm DMSO stock solutions. After drying the leaves were infested with N2 nymphs. The samples were assessed for mortality and growth inhibition in comparison to untreated samples 5 days after infestation.

[6] = tested on: Myzus persicae (Green Peach Aphid); test: Myzus persicae (green peach aphid), intrinsic activity; conditions: 120 h, test rate of 12 ppm, sucrose solution through Parafilm, 5 days after infestation
Source text: Example B8: Myzus persicae (Green Peach Aphid). Intrinsic Activity
Test compounds prepared from 10,000 ppm DMSO stock solutions were applied by pipette into 24-well microtiter plates and mixed with sucrose solution. The plates were closed with a stretched Parafilm. A plastic stencil with 24 holes was placed onto the plate and infested pea seedlings were placed directly on the Parafilm. The infested plate was closed with a gel blotting paper and another plastic stencil and then turned upside down. The samples were assessed for mortality 5 days after infestation.

[7] = tested on: Tetranychus urticae (Two-Spotted Spider Mite); test: Tetranychus urticae (two-spotted spider mite), feeding/contact activity; conditions: 192 h
Procedure: Example B11: Tetranychus urticae (Two-Spotted Spider Mite):Feeding/Contact Activity
Bean leaf discs on agar in 24-well microtiter plates were sprayed with aqueous test solutions prepared from 10,000 ppm DMSO stock solutions. After drying the leaf discs were infested with a mite population of mixed ages. The samples were assessed for mortality on mixed population (mobile stages) 8 days after infestation.

[8] = tested on: Plutella xylostella (Diamondback Moth); test: Plutella xylostella (diamondback moth), 96-well artificial diet, eggs; conditions: 216 h, application rate of 500 ppm, eggs/L1 larvae, 9 days after infestation
Procedure: Example B13: Plutella xylostella (Diamondback Moth)
96-well microtiter plates containing artificial diet were treated with aqueous test solutions, prepared from 10,000 ppm DMSO stock solutions, by a liquid handling robot. After drying, eggs (˜30 per well) were infested onto a netted lid which was suspended above the diet. The eggs hatch and L1 larvae move down to the diet. The samples were assessed for mortality 9 days after infestation.

CC(NC(=O)c1cc(C(F)(F)F)cc(C(F)(F)F)c1)c1ncnn1-c1ncc(OC(F)F)cn1 (stereo not drawn) [Compound P3, N-[1-[2-[5-(difluoromethoxy)pyrimidin-2-yl]-1,2,4-triazol-3-yl]ethyl]-3,5-bis(trifluoromethyl) benzamide]
≥ 80%: percent control (mortality or growth inhibition) at 200 ppm [1] | percent control (mortality, anti-feeding or growth inhibition) at 200 ppm [2] | percent control (mortality or growth inhibition) at 200 ppm [3] | percent control (mortality, anti-feedant effect or growth inhibition) at 200 ppm [4] | percent control (mortality or growth inhibition) at 200 ppm [5] | mortality at 12 ppm [6]

CC(NC(=O)c1cc(C(F)(F)F)cc(C(F)(F)F)c1)c1ncnn1-c1ncc(OCC(F)(F)F)cn1 (stereo not drawn) [Compound P4, N-[1-[2-[5-(2,2,2-trifluoroethoxy)pyrimidin-2-yl]-1,2,4-triazol-3-yl]ethyl]-3,5-bis(trifluoromethyl) benzamide]
≥ 80%: percent control (mortality or growth inhibition) at 200 ppm [1] | percent control (mortality, anti-feeding or growth inhibition) at 200 ppm [2] | percent control (mortality or growth inhibition) at 200 ppm [3] | percent control (mortality, anti-feedant effect or growth inhibition) at 200 ppm [4]

CC(NC(=O)c1cc(C(F)(F)F)cc(C(F)(F)F)c1)c1ncnn1-c1ncc(OCC(F)F)cn1 (stereo not drawn) [Compound P5, N-[1-[2-[5-(2,2-difluoroethoxy)pyrimidin-2-yl]-1,2,4-triazol-3-yl]ethyl]-3,5-bis(trifluoromethyl) benzamide]
≥ 80%: percent control (mortality or growth inhibition) at 200 ppm [1] | percent control (mortality, anti-feeding or growth inhibition) at 200 ppm [2] | percent control (mortality or growth inhibition) at 200 ppm [3] | percent control (mortality, anti-feedant effect or growth inhibition) at 200 ppm [4] | percent control (mortality or growth inhibition) at 200 ppm [5]

CC(NC(=O)c1cc(C(F)(F)F)cc(C(F)(F)F)c1)c1ncnn1-c1ccc(OC(F)(F)F)cn1 (stereo not drawn) [Compound P6, N-[1-[2-[5-(trifluoromethoxy)-2-pyridyl]-1,2,4-triazol-3-yl]ethyl]-3,5-bis(trifluoromethyl) benzamide]
≥ 80%: percent control (mortality or growth inhibition) at 200 ppm [1] | mortality at 200 ppm [7] | percent control (mortality, anti-feeding or growth inhibition) at 200 ppm [2] | percent control (mortality or growth inhibition) at 200 ppm [3] | percent control (mortality, anti-feedant effect or growth inhibition) at 200 ppm [4] | percent control (mortality or growth inhibition) at 200 ppm [5] | mortality at 500 ppm [8]

C[C@H](NC(=O)c1cc(C(F)(F)F)cc(C(F)(F)F)c1)c1ncnn1-c1ncc(OC(F)(F)F)cn1 [Compound P7, N-[(1S)-1-[2-[5-(trifluoromethoxy)pyrimidin-2-yl]-1,2,4-triazol-3-yl]ethyl]-3,5-bis(trifluoromethyl) benzamide]
≥ 80%: percent control (mortality or growth inhibition) at 200 ppm [1] | percent control (mortality, anti-feeding or growth inhibition) at 200 ppm [2] | percent control (mortality or growth inhibition) at 200 ppm [3]

CC(NC(=O)c1cc(C(F)(F)F)cc(C(F)(F)F)c1)c1ncnn1-c1ccc(OCC(F)(F)F)cn1 (stereo not drawn) [Compound P8, N-[1-[2-[5-(2,2,2-trifluoroethoxy)-2-pyridyl]-1,2,4-triazol-3-yl]ethyl]-3,5-bis(trifluoromethyl)benzamide]
≥ 80%: percent control (mortality or growth inhibition) at 200 ppm [1] | percent control (mortality, anti-feeding or growth inhibition) at 200 ppm [2] | percent control (mortality or growth inhibition) at 200 ppm [3] | percent control (mortality, anti-feedant effect or growth inhibition) at 200 ppm [4]

CC(NC(=O)c1cc(C(F)(F)F)cc(C(F)(F)F)c1)c1ncnn1-c1ccc(OCC(F)F)cn1 (stereo not drawn) [Compound P9, N-[1-[2-[5-(2,2-difluoroethoxy)-2-pyridyl]-1,2,4-triazol-3-yl]ethyl]-3,5-bis(trifluoromethyl) benzamide]
≥ 80%: percent control (mortality or growth inhibition) at 200 ppm [1] | percent control (mortality, anti-feeding or growth inhibition) at 200 ppm [2] | percent control (mortality or growth inhibition) at 200 ppm [3] | percent control (mortality, anti-feedant effect or growth inhibition) at 200 ppm [4]

CC(NC(=O)c1cc(C(F)(F)F)cc(C(F)(F)F)c1)c1ncnn1-c1ccc(O/C=C\C(F)(F)F)cn1 (stereo not drawn) [Compound P10, 3,5-bis(trifluoromethyl)-N-[1-[2-[5-[(Z)-3,3,3-trifluoroprop-1-enoxy]-2-pyridyl]-1,2,4-triazol-3-yl]ethyl]benzamide]
≥ 80%: percent control (mortality or growth inhibition) at 200 ppm [1] | percent control (mortality, anti-feedant effect or growth inhibition) at 200 ppm [4] | mortality at 500 ppm [8]

CC(NC(=O)c1cc(C(F)(F)F)cc(C(F)(F)F)c1)c1ncnn1-c1ccc(OC(F)F)cn1 (stereo not drawn) [Compound P11, N-[1-[2-[5-(difluoromethoxy)-2-pyridyl]-1,2,4-triazol-3-yl]ethyl]-3,5-bis(trifluoromethyl) benzamide]
≥ 80%: percent control (mortality or growth inhibition) at 200 ppm [1] | percent control (mortality, anti-feeding or growth inhibition) at 200 ppm [2] | percent control (mortality or growth inhibition) at 200 ppm [3] | percent control (mortality, anti-feedant effect or growth inhibition) at 200 ppm [4] | mortality at 500 ppm [8]

CC(NC(=O)c1cc(OCC(F)F)cc(C(F)(F)F)c1)c1ncnn1-c1ncc(OC(F)F)cn1 (stereo not drawn) [Compound P12, 3-(2,2-difluoroethoxy)-N-[1-[2-[5-(difluoromethoxy)pyrimidin-2-yl]-1,2,4-triazol-3-yl]ethyl]-5-(trifluoromethyl) benzamide]
≥ 80%: percent control (mortality or growth inhibition) at 200 ppm [1] | percent control (mortality, anti-feeding or growth inhibition) at 200 ppm [2] | percent control (mortality, anti-feedant effect or growth inhibition) at 200 ppm [4] | mortality at 12 ppm [6]
